Test results published in patent US20210395327A1, “Growth Hormone-Releasing Hormone Antagonists and Uses Thereof” (United States Government As Represented By The Department …, priority 2019, published 2021).
“Also recorded” adds a separate entry of the source. Non-standard residues stand in square brackets, D forms with d. Residues, ends and D or L forms follow the SMILES beside them. *: point of attachment. Phenylacetyl(2,3,4,5,6-F5) = O=C(Cc1c(F)c(F)c(F)c(F)c1F)*; Phe(F5) = N[C@@H](Cc1c(F)c(F)c(F)c(F)c1F)C(=O)O; Phe(4-Cl) = N[C@@H](Cc1ccc(Cl)cc1)C(=O)O; hArg = N=C(N)NCCCC[C@H](N)C(=O)O; 12Ado = NCCCCCCCCCCCC(=O)O; Nle = CCCC[C@H](N)C(=O)O; Orn = NCCC[C@H](N)C(=O)O; Abu = CC[C@H](N)C(=O)O; PhAc = O=C(Cc1ccccc1)*

Experiments:
[1] = target: T1, membrane GHRH-receptors on human anterior pituitary cells (Homo sapiens, UniProt Q02643); experiment: Receptor binding, displacement of 125I-[His1,Nle27]-hGH-RH(1-32)NH2 on human pituitary membranes; settings: for binding affinity to membrane receptors of human pituitary cells (in words): competitive binding, human pituitary membrane fractions; for IC50: membrane receptors on human anterior pituitary cells, mean of two to three determinations, read-out: IC50
T1 construct: Human pituitary was purchased from the National Hormone and Peptide Program; tissue National Hormone and Peptide Program; host or cells: human pituitary (membrane fractions)
T1 sequence (Q02643 23-423): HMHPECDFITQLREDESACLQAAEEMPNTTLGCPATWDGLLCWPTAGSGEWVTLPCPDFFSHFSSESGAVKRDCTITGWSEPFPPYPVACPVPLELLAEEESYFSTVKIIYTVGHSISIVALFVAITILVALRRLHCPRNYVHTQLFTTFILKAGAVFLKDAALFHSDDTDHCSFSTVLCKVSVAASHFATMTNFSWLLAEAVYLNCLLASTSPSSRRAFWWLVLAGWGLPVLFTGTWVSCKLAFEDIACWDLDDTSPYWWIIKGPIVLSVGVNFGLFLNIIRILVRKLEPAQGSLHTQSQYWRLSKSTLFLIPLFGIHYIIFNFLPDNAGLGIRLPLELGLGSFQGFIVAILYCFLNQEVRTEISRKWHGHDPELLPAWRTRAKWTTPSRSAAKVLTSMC
How it was run: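 Membrane fractions from human pituitary; peptides displace 125I-[His1,Nle27]-hGH-RH(1-32)NH2. IC50 is the dose giving 50% inhibition of specific binding, from duplicate tubes. Relative affinity is the ratio of test IC50 to hGH-RH(1-29)NH2 IC50.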

[2] = tested on: SK-OV-3 ovarian cancer cells; experiment: In vitro cell viability, SK-OV-3; assay type: cell-based, human; settings: Table 3B; * at 2 μM for 72 H; MIA-602 = 1
Method: The inhibitory effects of the various synthesized GHRH antagonists were tested in cell proliferation assays in various human cancer cell lines including stomach cancer (KATOIII, N87), colon cancer (HT-29), urothelial cancer (J82, RT4), pancreatic cancer (PANC-1, CFPAC-1), prostatic cancer (PC3), breast cancer (MX-1, HCC1806), ovarian cancer (SK-OV-3, OVCAR-3) and lung cancer (HCC827, H460).
Cell culture. Human cancer cell lines including pancreatic (PANC-1 and CFPAC-1), lung (HCC827 and H460), stomach (NCI-N87 and KATOIII), urothelial (J82, RT4), prostatic (PC3), breast (MX-1 and HCC 1806), colorectal (HT-29), and ovarian (SK-OV-3 and OVCAR-3) were obtained from the American Type Culture Collection (ATCC) and cultured at 37° C. in a humidified 95% air/5% CO2 atmosphere in the medium recommended by ATCC.
In vitro cell viability. Cell viability was analyzed as follows: cancer cells including pancreatic (PANC-1 and CFPAC-1), lung (HCC827 and H460), stomach (NCI-N87 and KATOIII), urothelial (J82, RT4), prostatic (PC3) and breast (MX-1 and HCC 1806), colorectal (HT-29) and ovarian (SK-OV-3 and OVCAR-3) were grown on 96 well plates to ˜60% confluence, the cells were starved for 24 h in culture medium containing 0.5% FBS. Cells were then treated with GHRH antagonists MIA602 AVR compounds at concentrations of 1, 2.5 or 5 μM, or vehicle (0.1% DMSO) in quintuplicates for 72 hours. The medium was replaced every 48 hours. Cell viability was measured using CellTiter 96 aqueous one solution kit (Promega). Inhibitory effects of tested AVR compounds in comparison to that of MIA602 are presented as inhibitory potency.
Inhibitory effects of selected AVR compounds in comparison to that of MIA602 are presented as inhibitory potency (e.g., percentage of inhibition). […] The cell lines tested including lung cancer HCC827 (FIG. 2A), pancreatic cancer CFPAC-1 (FIG. 2B), stomach cancer N87 (FIG. 2C), colon cancer HT-29 (FIG. 2D), breast cancers MX-1 and HCC1806 (FIGS. 2 E, F). […]

[3] = tested on: CFPAC-1 pancreatic cancer cells; experiment: In vitro cell viability, CFPAC-1; assay type: cell-based, human; settings: for In vitro relative inhibitory potency in comparison to MIA-602, CFPAC-1: Table 3B, 5 μM for 72 H, MIA-602 = 1
How it was run: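 Human tumour lines were exposed to GHRH antagonist at 1, 2.5 or 5 μM for 72 h with medium refreshed every 48 h, after 24 h in low-serum (0.5% FBS) medium. Cell viability (CellTiter 96) was expressed as inhibition relative to MIA602.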

CCCC[C@H](NC(=O)[C@@H](NC(=O)[C@H](CC(=O)O)NC(=O)[C@H](CCC(N)=O)NC(=O)[C@H](CC(C)C)NC(=O)[C@H](CC(C)C)NC(=O)[C@H](CCCCN)NC(=O)[C@H](CCCNC(=N)N)NC(=O)[C@H](C)NC(=O)[C@H](CO)NC(=O)[C@H](CC(C)C)NC(=O)[C@H](CCC(N)=O)NC(=O)[C@H](CC)NC(=O)[C@H](CC(C)C)NC(=O)[C@@H](NC(=O)[C@H](CCCCN)NC(=O)[C@H](CCCNC(=N)N)NC(=O)[C@H](Cc1ccc(OC)cc1)NC(=O)[C@H](CCCCNC(=N)N)NC(=O)[C@H](C)NC(=O)[C@@H](NC(=O)[C@H](Cc1c(F)c(F)c(F)c(F)c1F)NC(=O)[C@@H](NC(=O)[C@H](C)NC(=O)[C@H](CC(=O)O)NC(=O)[C@@H](CCCNC(=N)N)NC(=O)[C@H](Cc1ccc(O)cc1)NC(=O)CCCCCCCCCCCNC(=O)Cc1c(F)c(F)c(F)c(F)c1F)[C@@H](C)CC)[C@@H](C)O)C(C)C)[C@@H](C)CC)C(=O)N[C@H](CCCNC(=N)N)C(=O)N[C@@H](CCCCNC(=N)N)C(=O)NCCCCCCCCCCCC(N)=O [AVR-352, 5FPhAC-Ada-Tyr-DArg-Asp-Ala-Ile-5FPhe-Thr-Ala-Har-Tyr(Me)-Arg-Lys-Val-Leu-Abu-Gln-Leu-Ser-Ala-Arg-Lys-Leu-Leu-Gln-Asp-Ile-Nle-DArg-Har-Ada-NH2] ({Phenylacetyl(2,3,4,5,6-F5)-12Ado}-Y[dR]DAI[Phe(F5)]TA[hArg]Y(Me)RKVL[Abu]QLSARKLLQDI[Nle][dR][hArg][12Ado]-NH2)
binding affinity to membrane receptors of human pituitary cells (in words) [1]: higher binding affinity in comparison to MIA-602; also recorded: highest binding affinities | IC50 [1]: 0.09 nM | In vitro relative inhibitory potency in comparison to MIA-602, SKOV-3 [2]: 1.15* | In vitro relative inhibitory potency in comparison to MIA-602, CFPAC-1 [3]: 1.576

CCCC[C@H](NC(=O)[C@@H](NC(=O)[C@H](CC(=O)O)NC(=O)[C@H](CCC(N)=O)NC(=O)[C@H](CC(C)C)NC(=O)[C@H](CC(C)C)NC(=O)[C@H](CCCCN)NC(=O)[C@H](CCCNC(=N)N)NC(=O)[C@H](C)NC(=O)[C@H](CO)NC(=O)[C@H](CC(C)C)NC(=O)[C@H](CCC(N)=O)NC(=O)[C@H](CC)NC(=O)[C@H](CC(C)C)NC(=O)[C@@H](NC(=O)[C@H](CCCCN)NC(=O)[C@H](CCCNC(=N)N)NC(=O)[C@H](Cc1c(F)c(F)c(F)c(F)c1F)NC(=O)[C@H](CCCCNC(=N)N)NC(=O)[C@H](C)NC(=O)[C@@H](NC(=O)[C@H](Cc1ccc(Cl)cc1)NC(=O)[C@@H](NC(=O)[C@H](C)NC(=O)[C@H](CC(=O)O)NC(=O)[C@@H](CCCNC(=N)N)NC(=O)[C@H](Cc1ccc(O)cc1)NC(=O)CCCCCCCCCCCNC(=O)Cc1c(F)c(F)c(F)c(F)c1F)[C@@H](C)CC)[C@@H](C)O)C(C)C)[C@@H](C)CC)C(=O)N[C@H](CCCNC(=N)N)C(=O)N[C@@H](CCCCNC(=N)N)C(=O)NCCCCCCCCCCCC(N)=O [AVR-353, 5FPhAC-Ada-Tyr-DArg-Asp-Ala-Ile-Cpa-Thr-Ala-Har-5FPhe-Arg-Lys-Val-Leu-Abu-Gln-Leu-Ser-Ala-Arg-Lys-Leu-Leu-Gln-Asp-Ile-Nle-DArg-Har-Ada-NH2] ({Phenylacetyl(2,3,4,5,6-F5)-12Ado}-Y[dR]DAI[Phe(4-Cl)]TA[hArg][Phe(F5)]RKVL[Abu]QLSARKLLQDI[Nle][dR][hArg][12Ado]-NH2)
binding affinity to membrane receptors of human pituitary cells (in words) [1]: higher binding affinity in comparison to MIA-602; also recorded: highest binding affinities | IC50 [1]: 0.11 nM | In vitro relative inhibitory potency in comparison to MIA-602, SKOV-3 [2]: 1.04* | In vitro relative inhibitory potency in comparison to MIA-602, CFPAC-1 [3]: 2.922

CCCC[C@H](NC(=O)[C@@H](NC(=O)[C@H](CC(=O)O)NC(=O)[C@H](CCC(N)=O)NC(=O)[C@H](CC(C)C)NC(=O)[C@H](CC(C)C)NC(=O)[C@H](CCCN)NC(=O)[C@H](Cc1c[nH]cn1)NC(=O)[C@H](C)NC(=O)[C@H](CO)NC(=O)[C@H](CC(C)C)NC(=O)[C@H](CCC(N)=O)NC(=O)[C@H](CC)NC(=O)[C@H](CC(C)C)NC(=O)[C@@H](NC(=O)[C@H](CCCN)NC(=O)[C@H](Cc1c[nH]cn1)NC(=O)[C@H](Cc1ccc(OC)cc1)NC(=O)[C@H](CCCCNC(=N)N)NC(=O)[C@H](C)NC(=O)[C@@H](NC(=O)[C@H](Cc1c(F)c(F)c(F)c(F)c1F)NC(=O)[C@@H](NC(=O)[C@H](C)NC(=O)[C@H](CC(=O)O)NC(=O)[C@@H](CCCNC(=N)N)NC(=O)[C@H](Cc1ccc(O)cc1)NC(=O)CCCCCCCCCCCNC(=O)Cc1ccccc1)[C@@H](C)CC)[C@@H](C)O)C(C)C)[C@@H](C)CC)C(=O)N[C@H](CCCNC(=N)N)C(=O)N[C@@H](CCCCNC(=N)N)C(N)=O [MIA-602, PhAC-Ada, Tyr D-Arg, Asp, Ala, Ile, 5FPhe, Thr, Ala, Har, Tyr(Me), His, Orn, Val, Leu, Abu, Gin, Leu, Ser, Ala, His, Om, Leu, Leu, Gin, Asp, Ile; Nle, D-Arg, Har NH2, reference compound] ({PhAc-12Ado}-Y[dR]DAI[Phe(F5)]TA[hArg]Y(Me)H[Orn]VL[Abu]QLSAH[Orn]LLQDI[Nle][dR][hArg]-NH2)
In vitro relative inhibitory potency in comparison to MIA-602, SKOV-3 [2]: 1 | In vitro relative inhibitory potency in comparison to MIA-602, CFPAC-1 [3]: 1 | relative inhibitory potency in comparison to MIA-602, Pancreatic CFPAC-1 ([3]; antagonist 5 μM for 72 h, cell proliferation assay, MIA602 = 1): 1
